According to patent publication US4154730A, “Novel 17-spirosultines” (Roussel Uclaf, priority 1976, dated 1979):

Legend:
[1] = molecular target: T1, progesterone receptor (hormonal receptor of rabbit uterus cytosol) (Oryctolagus cuniculus, UniProt P06186); experiment: Progestomimetic activity by the method of hormonal receptors: displacement of tritiated product R in uterus cytosol; format: binding; details: tritiated 17,21-dimethyl-19-nor-Δ4,9-pregnadiene-3,20-dione, 0° C., 2 hours, progesterone = 100
T1 construct: The uterus was removed and homogenized in a buffered mixture; from tissue; host or cells: uterus cytosol (105,000 g supernatant) of impuberic rabbits primed with estradiol
T1 sequence (P06186 1-930): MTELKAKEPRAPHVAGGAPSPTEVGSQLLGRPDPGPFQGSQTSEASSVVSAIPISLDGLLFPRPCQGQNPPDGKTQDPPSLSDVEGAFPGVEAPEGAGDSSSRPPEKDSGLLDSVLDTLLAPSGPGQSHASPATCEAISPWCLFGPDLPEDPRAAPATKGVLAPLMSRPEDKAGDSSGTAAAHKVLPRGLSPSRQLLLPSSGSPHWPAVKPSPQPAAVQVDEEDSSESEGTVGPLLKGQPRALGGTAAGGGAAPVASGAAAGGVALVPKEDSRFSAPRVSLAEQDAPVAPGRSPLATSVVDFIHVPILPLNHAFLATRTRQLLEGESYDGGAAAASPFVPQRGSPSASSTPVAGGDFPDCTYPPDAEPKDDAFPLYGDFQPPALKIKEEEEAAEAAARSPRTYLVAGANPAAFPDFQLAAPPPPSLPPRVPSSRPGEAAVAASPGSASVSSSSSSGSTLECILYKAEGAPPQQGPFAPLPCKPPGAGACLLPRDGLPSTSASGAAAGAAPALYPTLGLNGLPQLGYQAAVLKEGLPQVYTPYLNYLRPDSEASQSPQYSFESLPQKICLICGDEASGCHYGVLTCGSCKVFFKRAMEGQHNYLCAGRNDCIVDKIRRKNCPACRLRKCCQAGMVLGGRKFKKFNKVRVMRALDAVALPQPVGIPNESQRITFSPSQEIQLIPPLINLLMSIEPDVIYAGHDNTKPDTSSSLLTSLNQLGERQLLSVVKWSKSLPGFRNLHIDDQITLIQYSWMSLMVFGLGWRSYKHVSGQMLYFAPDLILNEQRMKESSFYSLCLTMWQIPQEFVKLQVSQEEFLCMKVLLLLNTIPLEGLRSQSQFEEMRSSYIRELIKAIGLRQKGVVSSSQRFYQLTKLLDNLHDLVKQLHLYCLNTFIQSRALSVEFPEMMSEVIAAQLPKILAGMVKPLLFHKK
Method: Ster. Biochem., Vol. 6 (1975), p. 615-622 and Physiology and Genetics of Reproduction, part A (1975), p. 143-160]. Impuberic rabbits received percutaneously 25 γ of estradiol and 5 days later, the animals were killed. The uterus was removed and homogenized in a buffered mixture of 10 mM of tromethamine, 0.25 M of saccharose and sufficient hydrochloric acid for a pH of 7.4. The homogenate was centrifuged at 105,000 g for one hour and the liquid surnageant or cytosol was adjusted to obtain a dilution of 1:50 (weight of uterus to volume). […] B/T max. is the percentage of tritiated product R bound when no product was added and B/T min. is the percentage of tritiated product R bound when the maximum quantity of cold product R is added. The intersections of line I50 and the curves permit the determination of the CP and CX values. CP is the concentration of cold progesterone which inhibits by 50% the fixation of tritiated product R and CX is the concentration of test product which inhibits by 50% the fixation of tritiated product R. The relative affinity of the test product or RLA is determined by the formula [formula] and the results are reported in Table I.

[2] = test system: activity of monoacetate of aldosterone (urinary sodium/potassium ratio); experiment: Antialdosteronic activity in surrenalectomized rats; format: in vivo, rat (Sprague Dawley); details: male surrenalectomized rats, test product 5 mg/kg subcutaneously, urine collected for 4 hours
Method: Male rats of the Sprague Dawley strain weighing about 180 g were subjected to surrenalectomy and at this moment, the rats received a drink of physiological serum. After about 2 days, the animals were fasted for 16 hours and then received a drink of an aqueous 5% glucose solution. The test products were administered subcutaneously at about 16 hours in the form of a solution or suspension in a 0.25% aqueous carboxymethyl cellulose solution containing Tween 80. One hour later, the animals received on the one hand intraperitoneally a hydrosaline surcharge at a dose of 5 ml/per rat of a 0.9% physiological serum and on the other hand subcutaneously 1 μg/kg of the monoacetate of aldosterone in a 2.5% alcoholic solution. The rats were placed in diuresis cages without food or drink for 4 hours and after this time, a forced urination was effected by pressure on the bladder. The volume of the obtained urine was adjusted to 50 ml and the amounts of sodium and potassium present was determined by an autoanalyzer. The results are expressed as a percentage of inhibition of the activity of 1 μg/kg of subcutaneously injected monoacetate of aldosterone by the ratio of sodium concentration to potassium concentration of the surrenalectomized rats.

SMILES	RLA (relative affinity of the test product, from CP and CX) [1]	percentage of inhibition of the activity of 1 μg/kg of subcutaneously injected monoacetate of aldosterone (sodium/potassium ratio) [2] [%]
C[C@]12CCC3=C4CCC(=O)C=C4CC[C@H]3[C@@H]1CC[C@@]21CCS(=O)O1 (stereo partly drawn) [product A, B isomer of (17R) 2'-oxidospiro-[Δ^4,9-estradiene-17,5'-(1',2')-oxathiolane]-3-one]	280	88
C[C@]12C=CC3=C4CCC(=O)C=C4CC[C@H]3[C@@H]1CC[C@@]21CCS(=O)O1 (stereo partly drawn) [product B, B isomer of (17R) 2'-oxidospiro-[Δ^4,9,11-estratriene-17,5'-(1',2')-oxathiolane]-3-one]	400	
